Laboratory results reported in patent publication US20230165921A1, “USE OF DANDELION AND MONOMER COMPOUNDS THEREOF FOR KILLING MITES” (SMILEBIOTEK ZHUHAI LIMITED, priority 2020, published 2023).
Entries after “also recorded” stand apart in the source; their conditions may differ.

Assays:
Demodex mites [1] = assay: Preliminary in-vitro screening of monomer compounds for effect on survival time of Demodex mites; design: species or system D. folliculorum; details: 20° C., humidity 96%; for in-vitro survival time of Demodex mites compared with the negative control group receiving 10% DMSO solution: in words; for Survival time: in vitro, 35 µL monomer compound solution in 10% DMSO, mean ± SD
Experimental: The powders of the monomer compounds shown in Table 2 were separately dissolved in dimethyl sulfoxide (DMSO), and then diluted with sterilized double-distilled water to make the final concentration of DMSO 10%, which could not shorten the survival time of Demodex mites as per a controlled study. The negative control group received DMSO mixed with sterilized water at a final concentration of 10%.
As in Example 1, 35 µL of each solution was added to a glass slide, and the survival of the mites was observed under an optical microscope every 2 hours. During the experiment, the Demodex mites were observed by two skilled operators separately for the activities (bodies, limbs and the like) through the microscope to determine whether they were dead or not. If the two operators gave different results, the survival status was determined independently by a third skilled operator. The in-vitro culture was conducted in a climatic chamber at a temperature of 20° C. and a humidity of 96%. During the observation, the glass slides were transported in a wet box to ensure the high humidity.
In this experiment, statistical analysis was conducted using SPSS22.0 statistical software, normality test was conducted using Shapiro-Wilk test, and homogeneity of variance test was conducted using Bartlett’s test.
Effects of monomer compounds of traditional Chinese medicine on survival time of D. folliculorum The in-vitro culture of the Demodex mites was conducted in an environment at a humidity of 96% and a temperature of 20° C. The survival of the Demodex mites was observed dynamically and the survival time was recorded.

Demodex mites [2] = assay: In-vitro culture of Demodex mites with traditional Chinese medicine decoctions: survival time; design: species or system D. folliculorum; details: 20° C., humidity 96%
Experimental: The detection of Demodex mites was performed according to the conventional method of eyelash microscopy (12,20). 3 eyelashes were collected from each eyelid, with a total of 12 eyelashes. The collected eyelashes were immediately placed on glass slides with three eyelashes on each glass slide, and the glass slides were examined under a common optical microscope for observation. Demodex mites in all periods were counted and classified according to morphology (specific standard: D. brevis with a head-to-body ratio of 1:1, and D. folliculorum with a head-to-body ratio of 1:3 to 1:4). […]
On the basis of the above detection of Demodex mites, 35 µL of the solutions was separately added to the slides, and the survival of the mites was observed every 2 hours. […] If the two operators gave different results, the survival status was determined independently by a third skilled operator. […]
60 g of dried ready-to-use forms was weighed using an electronic balance, and soaked in water with an amount of 10 times (600 mL) in a marmite overnight. […]
The in-vitro culture of the Demodex mites was conducted in an environment at a humidity of 96% and a temperature of 20° C. The survival of the Demodex mites was observed dynamically and the survival time was recorded.

Structure (SMILES) | in-vitro survival time of Demodex mites compared with the negative control group receiving 10% DMSO solution (Demodex mites [1]) | Survival time (Demodex mites [2]; in vitro, 35 µL solution on slide, decoction 60 g in 100 mL, TTO and T4O 10% in sterilized water, mean ± SD) [h] | in-vitro survival time of Demodex mites compared with the negative control (sterilized water) (Demodex mites [2]; in words) | Survival time (Demodex mites [1]) [h]
CC1(C)CC[C@]2(C)CC=C3[C@]4(C)CC[C@H]5C(C)(C)[C@@H](O)CC[C@]5(C)[C@H]4CC[C@@]3(C)[C@@H]2C1 [Taraxerol] | significantly shorter; also recorded: can significantly shorten the survival time of the mites |  |  | 
CC1=CCC(O)(C(C)C)CC1 (stereo not shown) [T4O, terpinen-4-ol] |  | 40.50 ± 13.12 | did not show significant differences | 
O=C(O)/C=C/c1ccc(O)c(O)c1 [Caffeic acid] |  |  |  | 66.45 ± 24.24
COc1ccc(-c2cc(=O)c3c(O)cc(O)cc3o2)cc1O [Diosmetin] | significantly shorter; also recorded: can significantly shorten the survival time of the mites |  |  | 
C=C1CC[C@]2(C)CC[C@]3(C)[C@H](CC[C@@H]4[C@@]5(C)CC[C@H](OC(C)=O)C(C)(C)[C@@H]5CC[C@]43C)[C@H]2[C@@H]1C [Taraxasterol acetate] | significantly shorter; also recorded: can significantly shorten the survival time of the mites |  |  | 37.91 ± 20.96
